{"source": "patent US20240018140A1", "about": "“MODIFIED IMIDAZOPYRIDINES AS GLUCOSYLCERAMIDE SYNTHASE INHIBITORS” (Merck Sharp & Dohme LLC, priority 2020, published 2024)", "data": [{"biological_target": "glucosylceramide synthase (GCS) (Homo sapiens (Human), UniProt Q16739)", "sequence (Q16739 whole entry)": "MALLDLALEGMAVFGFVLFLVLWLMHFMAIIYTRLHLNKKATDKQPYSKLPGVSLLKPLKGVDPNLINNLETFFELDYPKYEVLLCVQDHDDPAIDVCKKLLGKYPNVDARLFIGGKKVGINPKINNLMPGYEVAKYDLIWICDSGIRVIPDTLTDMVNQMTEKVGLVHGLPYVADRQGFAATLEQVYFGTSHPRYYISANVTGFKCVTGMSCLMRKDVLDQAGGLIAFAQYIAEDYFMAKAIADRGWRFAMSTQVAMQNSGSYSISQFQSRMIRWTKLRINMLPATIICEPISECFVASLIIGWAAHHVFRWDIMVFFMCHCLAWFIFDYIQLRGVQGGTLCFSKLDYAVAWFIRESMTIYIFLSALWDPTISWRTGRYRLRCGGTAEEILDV", "assay": "UDP-Glo glucosylceramide synthase biochemical assay", "details": "endogenous GCS in Golgi preparations from human A375 malignant melanoma skin cells; C6 ceramide and UDP-glucose substrates; 20 h incubation; UDP detected by luminescence", "text": "UDP-Glo™ Glucosylceramide Synthase Biochemical Assay\nA UDP-Glo™ glucosylceramide synthase biochemical assay was utilized to evaluate the effect of test compounds on the activity of endogenous levels of GCS enzyme contained within Golgi preparations isolated from human A375 malignant melanoma skin cells. The UDP-Glo™ glucosylceramide synthase assay uses UDP-Glucose as a nucleotide-glycosyl donor and ceramide as substrate acceptor molecules. In the reaction, glucosylceramide synthase (GCS) transfers glucose from UDP-Glucose to ceramide. Glucosylceramide and UDP are released as products.\nUsing Promega's UDP-Glo™ Glycosyltransferase assay kit (Promega Corporation, Madison, WI, USA (Promega)), GCS activity was indirectly measured by detecting the amount of UDP produced. An aliquot of GCS enzyme (1.5 μg crude golgi preparation, total protein) and titrated test compound were aliquoted to each well and incubated for 30 minutes at room temperature. […] An equivalent volume of substrate mixture was then added to each well. Following a 20 h incubation at room temperature to allow for GCS turnover of substrate, an equal volume of UDP detection reagent (Promega) was added to each well and incubated for an additional 75 minutes at room temperature to simultaneously convert the accumulated UDP product into ATP and generate light in a luciferase reaction. The generated light was detected using a luminometer. […] luminescence values (RLUs) were normalized to mean “min” and “max” effects, as determined on each plate. “Min” was defined as the mean of the values of the wells treated with vehicle (DMSO) and which represent 0% inhibition; “max” was defined as the mean of the values of the wells treated with a reference inhibitor and which represent the 100% effect. Values for % Emax and EC50 were determined by best-fitting the normalized data to a curve in Activity Base along a four-parameter logistic nonlinear regression (4PL) model (based on the Levenberg-Marquardt algorithm and defined by the equation below): […]\nwhere: n is 4PMin (bottom of the curve); m is 4PMax (top of the curve); i is IP (inflection point of curve); and p is slope. See Levenberg, K., “A Method for the Solution of Certain Problems in Least Squares”, Quart. Appl. Math. 2, (1944), pp 164-168 and Marquardt, D., “An Algorithm for Least Squares Estimation on Nonlinear Parameters”, SIAM J. Appl. Math. 11, (1963) pp 431-441.", "units": {"EC50": "nM"}, "values": [{"compound": "CC(C)(NC(=O)c1cn2cc(F)cc(-c3ccccc3OCC(F)(F)F)c2n1)C(F)(F)F", "note": "[Compound 41, 6-fluoro-N-(1,1,1-trifluoro-2-methylpropan-2-yl)-8-(2-(2,2,2-trifluoroethoxy)phenyl)imidazo[1,2-a]pyridine-2-carboxamide]", "EC50": 1.7}, {"compound": "O=C(N[C@H]1CCCOC1)c1cn2cc(C(F)(F)F)cc(-c3ccccc3OCC(F)(F)F)c2n1", "note": "[Compound 42, (S)-N-(tetrahydro-2H-pyran-3-yl)-8-(2-(2,2,2-trifluoroethoxy)phenyl)-6-(trifluoromethyl)imidazo[1,2-a]pyridine-2-carboxamide]", "EC50": 2.5}, {"compound": "COc1cc(-c2ccccc2OCC(F)(F)F)c2nc(C(=O)NC(C)(C)C(F)(F)F)cn2c1", "note": "[Compound 43, 6-methoxy-N-(1,1,1-trifluoro-2-methylpropan-2-yl)-8-(2-(2,2,2-trifluoroethoxy)phenyl)imidazo[1,2-a]pyridine-2-carboxamide]", "EC50": 2.1}, {"compound": "CC(C)(NC(=O)c1cn2cc(C#N)cc(-c3ccccc3OCC(F)(F)F)c2n1)C(F)(F)F", "note": "[Compound 44, 6-cyano-N-(1,1,1-trifluoro-2-methylpropan-2-yl)-8-(2-(2,2,2-trifluoroethoxy)phenyl)imidazo[1,2-a]pyridine-2-carboxamide]", "EC50": 8.3}, {"compound": "O=C(N[C@@H]1COC[C@@H]1F)c1cn2cc(Cl)cc(-c3ccccc3OCC(F)(F)F)c2n1", "note": "[Compound 45, 6-chloro-N-((3R,4R)-4-fluorotetrahydrofuran-3-yl)-8-(2-(2,2,2-trifluoroethoxy)phenyl)imidazo[1,2-a]pyridine-2-carboxamide]", "EC50": 4.3}, {"compound": "O=C(N[C@H]1COC[C@@H]1F)c1cn2cc(Cl)cc(-c3ccccc3OCC(F)(F)F)c2n1", "note": "[Compound 46, 6-chloro-N-((3S,4R)-4-fluorotetrahydrofuran-3-yl)-8-(2-(2,2,2-trifluoroethoxy)phenyl)imidazo[1,2-a]pyridine-2-carboxamide]", "EC50": 4}, {"compound": "O=C(NC12CC(CO)(C1)C2)c1cn2cccc(-c3ccccc3OCC(F)(F)F)c2n1", "note": "[Compound 47, N-(3-(hydroxymethyl)bicyclo[1.1.1]pentan-1-yl)-8-(2-(2,2,2-trifluoroethoxy)phenyl)imidazo[1,2-a]pyridine-2-carboxamide]", "EC50": 9.2}, {"compound": "O=C(c1cn2cccc(-c3ccccc3OCC(F)(F)F)c2n1)N1CC2CC1(CF)C2", "note": "[Compound 48, (1-(fluoromethyl)-2-azabicyclo[2.1.1]hexan-2-yl)(8-(2-(2,2,2-trifluoroethoxy)phenyl)imidazo[1,2-a]pyridin-2-yl)methanone]", "EC50": 4.5}, {"compound": "CN1CC2(C1)CN(C(=O)c1cn3cccc(-c4ccccc4OCC(F)(F)F)c3n1)CCO2", "note": "[Compound 49, (2-methyl-5-oxa-2,8-diazaspiro[3.5]nonan-8-yl)(8-(2-(2,2,2-trifluoroethoxy)phenyl)imidazo[1,2-a]pyridin-2-yl)methanone]", "EC50": 18}, {"compound": "O=C(c1cn2cc(C(F)(F)F)cc(-c3ccccc3OCC(F)(F)F)c2n1)N1CCOC2(COC2)C1", "note": "[Compound 51, (2,5-dioxa-8-azaspiro[3.5]nonan-8-yl)(8-(2-(2,2,2-trifluoroethoxy)phenyl)-6-(trifluoromethyl)imidazo[1,2-a]pyridin-2-yl)methanone]", "EC50": 0.51}, {"compound": "O=C(NCc1ccccn1)c1cn2cccc(-c3ccccc3OCC(F)(F)F)c2n1", "note": "[Compound 52, N-(pyridin-2-ylmethyl)-8-(2-(2,2,2-trifluoroethoxy)phenyl)imidazo[1,2-a]pyridine-2-carboxamide]", "EC50": 13}, {"compound": "CC1(C)OCC1NC(=O)c1cn2cccc(-c3ccccc3OCC(F)(F)F)c2n1", "note": "(centres unmarked) [Compound 53, N-(2,2-dimethyloxetan-3-yl)-8-(2-(2,2,2-trifluoroethoxy)phenyl)imidazo[1,2-a]pyridine-2-carboxamide]", "EC50": 30}, {"compound": "CN(CCN1CCCC1)C(=O)c1cn2cccc(-c3ccccc3OCC(F)(F)F)c2n1", "note": "[Compound 54, N-methyl-N-(2-(pyrrolidin-1-yl)ethyl)-8-(2-(2,2,2-trifluoroethoxy)phenyl)imidazo[1,2-a]pyridine-2-carboxamide]", "EC50": 3}, {"compound": "O=C(c1cn2cccc(-c3ccccc3OCC(F)(F)F)c2n1)N1CCn2ccnc2C1", "note": "[Compound 55, (5,6-dihydroimidazo[1,2-a]pyrazin-7(8H)-yl)(8-(2-(2,2,2-trifluoroethoxy)phenyl)imidazo[1,2-a]pyridin-2-yl)methanone]", "EC50": 2.9}, {"compound": "Cc1ccncc1NC(=O)c1cn2cccc(-c3ccccc3OCC(F)(F)F)c2n1", "note": "[Compound 56, N-(4-methylpyridin-3-yl)-8-(2-(2,2,2-trifluoroethoxy)phenyl)imidazo[1,2-a]pyridine-2-carboxamide]", "EC50": 0.15}, {"compound": "O=C(Nc1cnccc1F)c1cn2cccc(-c3ccccc3OCC(F)(F)F)c2n1", "note": "[Compound 57, N-(4-fluoropyridin-3-yl)-8-(2-(2,2,2-trifluoroethoxy)phenyl)imidazo[1,2-a]pyridine-2-carboxamide]", "EC50": 0.45}, {"compound": "O=C(Nc1ccc[n+]([O-])c1)c1cn2cccc(-c3ccccc3OCC(F)(F)F)c2n1", "note": "[Compound 58, 3-(8-(2-(2,2,2-trifluoroethoxy)phenyl)imidazo[1,2-a]pyridine-2-carboxamido)pyridine-1-oxide]", "EC50": 28}, {"compound": "N#Cc1cnccc1NC(=O)c1cn2cccc(-c3ccccc3OCC(F)(F)F)c2n1", "note": "[Compound 59, N-(3-cyanopyridin-4-yl)-8-(2-(2,2,2-trifluoroethoxy)phenyl)imidazo[1,2-a]pyridine-2-carboxamide]", "EC50": 6}, {"compound": "O=C(c1cn2cc(Cl)cc(-c3ccccc3OCC(F)(F)F)c2n1)N1C[C@H]2C(CO)[C@@H]2C1", "note": "(stereo partly drawn) [Compound 60, (6-chloro-8-(2-(2,2,2-trifluoroethoxy)phenyl)imidazo[1,2-a]pyridin-2-yl)((1R,5R)-6-(hydroxymethyl)-3-azabicyclo[3.1.0]hexan-3-yl)methanone]", "EC50": 30}, {"compound": "O=C(Nc1cccnc1)c1cn2cc(F)cc(-c3ccccc3OCC(F)(F)F)c2n1", "note": "[Compound 61, 6-fluoro-N-(pyridin-3-yl)-8-(2-(2,2,2-trifluoroethoxy)phenyl)imidazo[1,2-a]pyridine-2-carboxamide]", "EC50": 0.083}, {"compound": "OCc1cn2cc(C(F)(F)F)cc(-c3ccccc3OCC(F)(F)F)c2n1", "note": "[Compound 62, (8-(2-(2,2,2-trifluoroethoxy)phenyl)-6-(trifluoromethyl)imidazo[1,2-a]pyridin-2-yl)methanol]", "EC50": 17}, {"compound": "CC(O)c1cn2cc(Cl)cc(-c3ccccc3OCC(F)(F)F)c2n1", "note": "(centres unmarked) [Compound 64, 1-[6-chloro-8-[2-(2,2,2-trifluoroethoxy)phenyl]imidazo[1,2-a]pyridin-2-yl]ethanol]", "EC50": 13}, {"compound": "OC(c1cn2cc(Cl)cc(-c3ccccc3OCC(F)(F)F)c2n1)C1CC1", "note": "(centres unmarked) [Compound 65, [6-chloro-8-[2-(2,2,2-trifluoroethoxy)phenyl]imidazo[1,2-a]pyridin-2-yl]-cyclopropyl-methanol]", "EC50": 1.3}, {"compound": "CC(C)(O)c1cn2cc(Cl)cc(-c3ccccc3OCC(F)(F)F)c2n1", "note": "[Compound 66, 2-(6-chloro-8-(2-(2,2,2-trifluoroethoxy)phenyl)imidazo[1,2-a]pyridin-2-yl)propan-2-ol]", "EC50": 15}, {"compound": "CC(C)(O)c1cn2cc(Cl)cc(-c3ccc(F)cc3OCC(F)(F)F)c2n1", "note": "[Compound 67, 2-(6-chloro-8-(4-fluoro-2-(2,2,2-trifluoroethoxy)phenyl)imidazo[1,2-a]pyridin-2-yl) propan-2-ol]", "EC50": 67}, {"compound": "OC(c1cn2cc(F)cc(-c3ccccc3OCC(F)(F)F)c2n1)C1CCOCC1", "note": "(centres unmarked) [Compound 68, (6-fluoro-8-(2-(2,2,2-trifluoroethoxy)phenyl)imidazo[1,2-a]pyridin-2-yl)(tetrahydro-2H-pyran-4-yl)methanol]", "EC50": 10}, {"compound": "CC1(C)CN=C(c2cn3cc(Cl)cc(-c4ccccc4OCC(F)(F)F)c3n2)O1", "note": "[Compound 69, 2-(6-chloro-8-(2-(2,2,2-trifluoroethoxy)phenyl)imidazo[1,2-a]pyridin-2-yl)-5,5-dimethyl-4,5-dihydrooxazole]", "EC50": 15}, {"compound": "CN1CC2(CN=C(c3cn4cc(Cl)cc(-c5ccccc5OCC(F)(F)F)c4n3)O2)C1", "note": "[Compound 70, 6-[6-chloro-8-[2-(2,2,2-trifluoroethoxy)phenyl]imidazo[1,2-a]pyridin-2-yl]-2-methyl-5-oxa-2,7-diazaspiro[3.4]oct-6-ene]", "EC50": 0.061}, {"compound": "CC1(CO)CN=C(c2cn3cc(Cl)cc(-c4ccccc4OCC(F)(F)F)c3n2)O1", "note": "(centres unmarked) [Compound 71, (2-(6-chloro-8-(2-(2,2,2-trifluoroethoxy)phenyl)imidazo[1,2-a]pyridin-2-yl)-5-methyl-4,5-dihydrooxazol-5-yl)methanol]", "EC50": 16}]}]}
